# Counter-ions that a name gives are not always drawn. Like-named read-outs stand apart in the source and are kept apart here.
# Target: T1, recombinant full-length USP7 (Homo sapiens, UniProt Q93009)
# T1 construct: A 25 μl reaction volume containing recombinant full-length USP7 (62 pM)
# Assay: USP7-mediated ubiquitin-rhodamine cleavage assay
# Format: biochemical
# Conditions: recombinant full-length USP7 62 pM, ubiquitin-rhodamine 100 nM, 1 hour reaction at room temperature
# In short: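 Full-length recombinant USP7 (62 pM) in 20 mM HEPES pH 7.3, 150 mM NaCl, 1 mM TCEP, 125 μg/ml BSA, 1% DMSO, preincubated with compound 30 min at RT. Ubiquitin-rhodamine (100 nM final) cleaved 1 h at RT in the dark, stopped with acetic acid; rhodamine fluorescence read, IC50 by 4-parameter nonlinear fit.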
# [1] = 30-minute pre-incubation, read-out: Potency (USP7 IC50)
# [2] = 30-minute incubation with compound, read-out: Potency: USP7 IC50
# T1 sequence (Q93009 whole entry): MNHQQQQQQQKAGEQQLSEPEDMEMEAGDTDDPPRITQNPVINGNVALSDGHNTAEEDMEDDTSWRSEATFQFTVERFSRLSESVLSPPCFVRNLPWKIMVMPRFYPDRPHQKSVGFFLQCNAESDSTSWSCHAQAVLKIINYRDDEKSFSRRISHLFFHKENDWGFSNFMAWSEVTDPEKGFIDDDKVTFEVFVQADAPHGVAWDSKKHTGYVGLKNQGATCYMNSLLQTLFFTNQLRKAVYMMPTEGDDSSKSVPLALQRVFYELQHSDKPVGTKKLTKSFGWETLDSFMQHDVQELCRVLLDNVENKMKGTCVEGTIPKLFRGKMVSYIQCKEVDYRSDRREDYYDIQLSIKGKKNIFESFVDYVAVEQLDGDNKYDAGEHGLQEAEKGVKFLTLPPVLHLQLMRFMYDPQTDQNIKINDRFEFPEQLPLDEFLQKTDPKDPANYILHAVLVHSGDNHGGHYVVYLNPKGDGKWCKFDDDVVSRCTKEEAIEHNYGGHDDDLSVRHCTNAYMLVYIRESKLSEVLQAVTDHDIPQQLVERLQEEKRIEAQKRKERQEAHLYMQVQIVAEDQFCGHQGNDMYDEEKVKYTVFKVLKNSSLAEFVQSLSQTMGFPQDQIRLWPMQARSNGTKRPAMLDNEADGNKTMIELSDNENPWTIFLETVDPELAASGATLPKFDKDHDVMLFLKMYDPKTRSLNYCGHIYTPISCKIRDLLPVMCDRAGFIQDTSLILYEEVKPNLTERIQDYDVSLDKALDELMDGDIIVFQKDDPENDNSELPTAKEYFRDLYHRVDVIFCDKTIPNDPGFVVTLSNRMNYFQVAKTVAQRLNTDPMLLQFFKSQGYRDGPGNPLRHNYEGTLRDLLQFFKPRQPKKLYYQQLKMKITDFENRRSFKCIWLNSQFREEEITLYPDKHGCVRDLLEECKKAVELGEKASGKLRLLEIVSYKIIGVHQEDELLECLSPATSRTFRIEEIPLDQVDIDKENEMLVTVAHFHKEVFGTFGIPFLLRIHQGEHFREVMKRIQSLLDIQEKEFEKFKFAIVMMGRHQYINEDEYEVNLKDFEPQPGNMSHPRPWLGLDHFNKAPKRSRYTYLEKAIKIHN
SMILES,IC50 [1] [nM],IC50 [2] [nM],further results
"Cc1cc(Cl)cc(-c2ccnc3cc(Cn4c(=O)ccn(CC(F)(F)F)c4=O)sc23)c1OC1CC2(COC2)C1 [Example 679, 3-[[7-[5-chloro-3-methyl-2-(2-oxaspiro[3.3]heptan-6-yloxy)phenyl]thieno[3,2-b]pyridin-2-yl]methyl]-1-(2,2,2-trifluoroethyl)pyrimidine-2,4-dione]",–,–,"IC50 (30-minute incubation, read-out: Potency (USP7 IC50)): < 1000 nM"
"Cc1cc(Cl)cc(-c2ncnc3cc(CN4C(=O)C5C(C4=O)C5(C)C)sc23)c1O[C@@H]1CCNC[C@@H]1C (stereo partly drawn) [Example 365, 3-[[4-[5-chloro-3-methyl-2-[[(3S,4R)-3-methyl-4-piperidyl]oxy]phenyl]thieno[3,2-d]pyrimidin-6-yl]methyl]-6,6-dimethyl-3-azabicyclo[3.1.0]hexane-2,4-dione dihydrochloride]",–,< 1000,–
"Cc1cc(Cl)cc(-c2ccnc3cc(Cn4c(=O)ccn(CC(F)(F)F)c4=O)sc23)c1O[C@H]1CC[C@H](N)C1 [Example 596, 3-[[7-[2-[(1S,3S)-3-aminocyclopentoxy]-5-chloro-3-methyl-phenyl]thieno[3,2-b]pyridin-2-yl]methyl]-1-(2,2,2-trifluoroethyl)pyrimidine-2,4-dione; 2,2,2-trifluoroacetic acid]",< 1000,–,–
"Cc1cc(Cl)cc(-c2ccnc3cc(CO)sc23)c1O[C@@H]1C[C@H]2CC[C@@H](C1)N2 [Example 192, (7-(2-(((1R,3S,5S)-8-Azabicyclo[3.2.1]octan-3-yl)oxy)-5-chloro-3-methylphenyl)thieno[3,2-b]pyridin-2-yl)methanol]",–,1000 to 10000,–
"Cc1cc(Cl)cc(-c2ccnc3cc(CN4C(=O)CCC4=O)sc23)c1OCC12CNCC1C2 (stereo not drawn) [Example 52, 1-((7-(2-((3-Azabicyclo[3.1.0]hexan-1-yl)methoxy)-5-chloro-3-methylphenyl)thieno[3,2-b]pyridin-2-yl)methyl)pyrrolidine-2,5-dione]",–,< 1000,–
"Cc1c(F)c(Cl)cc(-c2ccnc3cc(CN4C(=O)CCC4=O)sc23)c1O[C@H]1CCCNC1 [Example 433, 1-[[7-[5-chloro-4-fluoro-3-methyl-2-[[(3S)-3-piperidyl]oxy]phenyl]thieno[3,2-b]pyridin-2-yl]methyl]pyrrolidine-2,5-dione; 2,2,2-trifluoroacetic acid]",1000 to 10000,–,–
"Cc1cc2nccc(-c3cc(Cl)cc(C)c3OCC3CNC3)c2s1 [Example 37, 7-(2-(Azetidin-3-ylmethoxy)-5-chloro-3-methylphenyl)-2-methylthieno[3,2-b]pyridine]",–,1000 to 10000,–
"CN[C@H]1CC[C@H](Oc2c(C)cc(Cl)cc2-c2ccnc3cc(CO)sc23)CC1 [Example 179, (7-(5-Chloro-3-methyl-2-(((1r,4r)-4-(methylamino)cyclohexyl)oxy)phenyl)thieno[3,2-b]pyridin-2-yl)methanol]",–,10000 to 30000,–
"Cc1cc(Cl)cc(-c2ncnc3cc(Cn4c(=O)ccn(CC(F)(F)F)c4=O)sc23)c1O[C@H]1CCNC[C@H]1C [Example 585, 3-[[4-[5-chloro-3-methyl-2-[[(3R,4S)-3-methyl-4-piperidyl]oxy]phenyl]thieno[3,2-d]pyrimidin-6-yl]methyl]-1-(2,2,2-trifluoroethyl)pyrimidine-2,4-dione]",< 1000,–,–
"CCN1C[C@H]2C[C@@H]1[C@H](Oc1c(C)cc(Cl)cc1-c1ccnc3cc(CN4C(=O)C5C(C4=O)C5(C)C)sc13)C2 (stereo partly drawn) [Example 332, 3-[[7-[5-chloro-2-[[(1S,4R,5R)-3-ethyl-3-azabicyclo[2.2.1]heptan-5-yl]oxy]-3-methyl-phenyl]thieno[3,2-b]pyridin-2-yl]methyl]-6,6-dimethyl-3-azabicyclo[3.1.0]hexane-2,4-dione]",–,< 1000,–
"CO[C@@H]1CC(=O)N(Cc2cc3nccc(-c4cc(Cl)cc(C)c4O[C@H]4CCCNC4)c3s2)C1=O [Example 481, (3R)-1-[[7-[5-chloro-3-methyl-2-[[(3S)-3-piperidyl]oxy]phenyl]thieno[3,2-b]pyridin-2-yl]methyl]-3-methoxy-pyrrolidine-2,5-dione; 2,2,2-trifluoroacetic acid]",< 1000,–,–
"Cc1cc(Cl)cc(-c2ncnc3cc(CN4C(=O)C5C(C4=O)C5(C)C)sc23)c1OC1CNCC1(C)C (stereo not drawn) [Example 371, 3-[[4-[5-chloro-2-(4,4-dimethylpyrrolidin-3-yl)oxy-3-methyl-phenyl]thieno[3,2-d]pyrimidin-6-yl]methyl]-6,6-dimethyl-3-azabicyclo[3.1.0]hexane-2,4-dione]",–,< 1000,–
"Cc1cc(Cl)cc(-c2ccnc3cc(Cn4c(=O)ccn(CC(F)(F)F)c4=O)sc23)c1O[C@@H]1CN[C@@H](C(C)(C)O)C1 [Example 635, 3-[[7-[5-chloro-2-[(3S,5R)-5-(1-hydroxy-1-methyl-ethyl)pyrrolidin-3-yl]oxy-3-methyl-phenyl]thieno[3,2-b]pyridin-2-yl]methyl]-1-(2,2,2-trifluoroethyl)pyrimidine-2,4-dione]",< 1000,–,–
"CCC(O)c1cc2nccc(-c3cc(Cl)cc(C)c3OC(C)C3CNC3)c2s1 (stereo not drawn) [Example 34, 1-(7-(2-(1-(Azetidin-3-yl)ethoxy)-5-chloro-3-methylphenyl)thieno[3,2-b]pyridin-2-yl)propan-1-ol]",–,10000 to 30000,–

# Continued, in another order:
IC50 [1] [nM],IC50 [2] [nM],SMILES,further results
< 1000,–,"CCN1CC[C@H](Oc2c(C)cc(Cl)cc2-c2ccnc3cc(Cn4c(=O)ccn(C)c4=O)sc23)CC1(C)C [Example 491, 3-[[7-[5-chloro-2-[[(4S)-1-ethyl-2,2-dimethyl-4-piperidyl]oxy]-3-methyl-phenyl]thieno[3,2-b]pyridin-2-yl]methyl]-1-methyl-pyrimidine-2,4-dione; 2,2,2-trifluoroacetic acid]",–
< 1000,–,"Cc1cc(Cl)cc(-c2ccnc3cc(Cn4c(=O)ccn(C)c4=O)sc23)c1O[C@@H]1CCN[C@@H](C)C1 [Example 495, 3-[[7-[5-chloro-3-methyl-2-[[(2S,4R)-2-methyl-4-piperidyl]oxy]phenyl]thieno[3,2-b]pyridin-2-yl]methyl]-1-methyl-pyrimidine-2,4-dione]",–
–,< 1000,"Cc1cc(Cl)cc(-c2ncnc3cc(CN4C(=O)CCN(C)C4=O)sc23)c1O[C@H]1CCCNC1 [Example 252, (S)-3-((4-(5-Chloro-3-methyl-2-(piperidin-3-yloxy)phenyl)thieno[3,2-d]pyrimidin-6-yl)methyl)-1-methyldihydropyrimidine-2,4(1H,3H)-dione]",–
–,< 1000,"Cc1cc(Cl)cc(-c2ncnc3cc(CN4C(=O)c5ccccc5C4=O)sc23)c1OC1CCNCC1 [Example 202, 2-((4-(5-Chloro-3-methyl-2-(piperidin-4-yloxy)phenyl)thieno[3,2-d]pyrimidin-6-yl)methyl)isoindoline-1,3-dione]",–
–,< 1000,"Cc1cc(Cl)cc(-c2ccnc3cc(Cn4c(=O)ccn(CC(F)(F)F)c4=O)sc23)c1O[C@@H]1CCNC[C@H]1C [Example 275, 3-((7-(5-Chloro-3-methyl-2-(((3R,4R)-3-methylpiperidin-4-yl)oxy)phenyl)thieno[3,2-b]pyridin-2-yl)methyl)-1-(2,2,2-trifluoroethyl)pyrimidine-2,4(1H,3H)-dione]",–
< 1000,–,"Cc1cc(Cl)cc(-c2ccnc3cc(CN4C(=O)CCC4=O)sc23)c1OC1CNCc2ccccc21 (stereo not drawn) [Example 429, 1-[[7-[5-chloro-3-methyl-2-(1,2,3,4-tetrahydroisoquinolin-4-yloxy)phenyl]thieno[3,2-b]pyridin-2-yl]methyl]pyrrolidine-2,5-dione]",–
–,< 1000,"Cc1cc(Cl)cc(-c2ccnc3cc(CN4C(=O)CCNC4=O)sc23)c1O[C@@H]1CNC[C@@H]1F [Example 152, 3-((7-(5-Chloro-2-(((3R,4S)-4-fluoropyrrolidin-3-yl)oxy)-3-methylphenyl)thieno[3,2-b]pyridin-2-yl)methyl)dihydropyrimidine-2,4(1H,3H)-dione]",–
< 1000,–,"Cc1cc(Cl)cc(-c2ccnc3cc(Cn4c(=O)[nH]cc(C(F)(F)F)c4=O)sc23)c1O[C@H]1CCCNC1 [Example 571, 3-[[7-[5-chloro-3-methyl-2-[[(3S)-3-piperidyl]oxy]phenyl]thieno[3,2-b]pyridin-2-yl]methyl]-5-(trifluoromethyl)-1H-pyrimidine-2,4-dione]",–
–,1000 to 10000,"CCC(O)c1cc2ncnc(-c3cc(Cl)cc(C)c3OC3CCNCC3)c2s1 (stereo not drawn) [Example 181, 1-(4-(5-Chloro-3-methyl-2-(piperidin-4-yloxy)phenyl)thieno[3,2-d]pyrimidin-6-yl)propan-1-ol]",–
< 1000,–,"Cc1cc(Cl)cc(-c2ccnc3cc(Cn4c(=O)ccn(CC(F)(F)F)c4=O)sc23)c1O[C@@H]1CCN(CC(F)(F)F)C[C@@H]1C [Example 638, 3-[[7-[5-chloro-3-methyl-2-[[(3S,4R)-3-methyl-1-(2,2,2-trifluoroethyl)-4-piperidyl]oxy]phenyl]thieno[3,2-b]pyridin-2-yl]methyl]-1-(2,2,2-trifluoroethyl)pyrimidine-2,4-dione]",–
–,10000 to 30000,"CN[C@H]1CC[C@@H](Oc2c(C)cc(Cl)cc2-c2ccnc3cc(CO)sc23)CC1 [Example 247, (7-(5-Chloro-3-methyl-2-(((l s,4s)-4-(methylamino)cyclohexyl)oxy)phenyl)thieno[3,2-b]pyridin-2-yl)methanol]",–
–,1000 to 10000,"Cc1cc(Cl)cc(-c2ncnc3cc(CN4C(=O)CSC4=O)sc23)c1OC1CCNCC1 [Example 226, 3-((4-(5-Chloro-3-methyl-2-(piperidin-4-yloxy)phenyl)thieno[3,2-d]pyrimidin-6-yl)methyl)thiazolidine-2,4-dione]",–
–,1000 to 10000,"Cc1cc(Cl)cc(-c2ccnc3cc(CN4C(=O)CCC4=O)sc23)c1O[C@@H]1CN[C@@H](C(F)F)C1 [Example 125, 1-((7-(5-Chloro-2-(((3S,5R)-5-(difluoromethyl)pyrrolidin-3-yl)oxy)-3-methylphenyl)thieno[3,2-b]pyridin-2-yl)methyl)pyrrolidine-2,5-dione]",–

# Reference: patent publication US10722514B2 (FLX Bio, Inc., priority 2017, dated 2020)
